# Experimental data as given in patent US10244756B2, “Fungicidal N-cycloalkyl-N-{[ortho-(1-substituted-cycloalkyl)heteroaryl]methyl}(thio)carboxamides” (Bayer CropScience Aktiengesellschaft, priority 2015, dated 2019).
# What was measured:
# Puccinia recondita = assay: In vivo preventive test on Puccinia recondita (brown rust on wheat); conditions: Table A2, dose 100 ppm, evaluated 11 days after inoculation
# Method: (§1) Example A: In Vivo Preventive Test on Puccinia Recondita (Brown Rust on Wheat) Solvent: 5% by volume of Dimethyl sulfoxide • 10% by volume of Acetone Emulsifier: 1 μL of Tween® 80 per mg of active ingredient The active ingredients are made soluble and homogenized in a mixture of Dimethyl sulfoxide/Acetone/Tween® 80 and then diluted in water to the desired concentration. The young plants of wheat are treated by spraying the active ingredient prepared as described above. Control plants are treated only with an aqueous solution of Acetone/Dimethyl sulfoxide/Tween® 80. After 24 hours, the plants are contaminated by spraying the leaves with an aqueous suspension of Puccinia recondita spores. The contaminated wheat plants are incubated for 24 hours at 20° C. and at 100% relative humidity and then for 10 days at 20° C. and at 70-80% relative humidity. The test is evaluated 11 days after the inoculation. 0% means an efficacy which corresponds to that of the control plants while an efficacy of 100% means that no disease is observed.
# Uromyces appendiculatus = assay: In vivo preventive test on Uromyces appendiculatus (bean rust); conditions: Table B2, dose 100 ppm, evaluated 11 days after inoculation
# Method: as §1, with “B:” for “A:”, “Uromyces Appendiculatus (Bean Rust)” for “Puccinia Recondita (Brown Rust on Wheat)”, “bean” for “wheat”, “Uromyces appendiculatus” for “Puccinia recondita”
# [1] = logP by HPLC on reversed-phase column (C 18), EEC Directive 79/831 Annex V.A8; assay type: physicochemical; conditions: reversed-phase HPLC column (C 18), 40° C., 0.1% aqueous formic acid and acetonitrile, gradient 10% to 90% acetonitrile
# Method: In table 1, the logP values were determined in accordance with EEC Directive 79/831 Annex V.A8 by HPLC (High Performance Liquid Chromatography) on a reversed-phase column (C 18), using the method described below: Temperature: 40° C.; Mobile phases: 0.1% aqueous formic acid and acetonitrile; linear gradient from 10% acetonitrile to 90% acetonitrile. Calibration was carried out using unbranched alkan-2-ones (comprising 3 to 16 carbon atoms) with known logP values (determination of the logP values by the retention times using linear interpolation between two successive alkanones). lambda-max-values were determined using UV-spectra from 200 nm to 400 nm and the peak values of the chromatographic signals.
chromatographic logP [1],SMILES,Efficacy (Puccinia recondita) [%],Efficacy (Uromyces appendiculatus) [%]
–,"CC(C)c1ncc(Cl)cc1CN(C(=O)c1cn(C)nc1C(F)F)C1CC1 [CMP1, N-[(5-chloro-2-isopropylpyridin-3-yl)methyl]-N-cyclopropyl-3-(difluoromethyl)-1-methyl-1H-pyrazole-4-carboxamide]",0,0
3.39,"Cc1cc(C2(Cl)CC2)c(CN(C(=O)c2cn(C)nc2C(F)F)C2CC2)s1 [Example I.05, N-{[3-(1-chlorocyclopropyl)-5-methyl-2-thienyl]methyl}-N-cyclopropyl-3-(difluoromethyl)-1-methyl-1H-pyrazole-4-carboxamide]",–,–
